# Reference: patent US11565998B2, “Succinate prodrug, compositions containing the succinate prodrug and uses thereof” (ABLIVA AB, priority 2019, dated 2023)
# Columns and labels:
# [1] = Solubility in aqueous formulations in comparison to other succinate prodrugs; type: physicochemical; conditions: pH 7.4, aqueous buffer, thermodynamic from solid; PBS pH7.4
# Method: Solubility of Compound 1 in aqueous formulations in comparison to other succinate prodrugs was assessed by dissolving solid material in aqueous formulations and measuring the quantity in solution by HPLC (−MS). […] In many cases the max solubility of other prodrugs was lower than 100 uM. See Table 21 for example solubility data in PBS pH7.4 for other succinate prodrugs.
# [2] = Caco-2 bioavailability in vitro assay (apparent permeability); type: in vitro ADME; conditions: human; Caco-2, apical to basolateral, 0.01 mM, pH 7.4, 1 h, 37° C.
# Method: The cell penetrance and potential for oral bioavailability of Compound 1 was tested using a standard caco-2 bioavailability in vitro assay (in brief, confluent Caco-2 cells (L1, A. P., 1992; Grass, G. M; et al., 1992, Volpe, D. A., et al., 2001) in a 24 well Corning Costar Transwell format were provided by In Vitro Technologies Inc. (IVT Inc., Baltimore, Md., USA). The apical chamber contained 0.15 mL Hank's balanced buffer solution (HBBS) pH 7.4, 1% DMSO, 0.1 mM Lucifer Yellow. The basal chamber contained 0.6 mL HBBS pH 7.4, 1% DMSO. Controls and tests were incubated at 37° C. in a humidified incubator, shaken at 130 rpm for 1 h. Lucifer Yellow permeates via the paracellular (between the tight junctions) route only, a high Apparent Permeability (Papp) for Lucifer Yellow indicates cellular damage during assay and all such wells were rejected. Propranolol (good passive permeation with no known transporter effects) & acebutalol (poor passive permeation attenuated by active efflux by P-glycoprotein) were used as reference compounds. Compounds were tested in a uni- and bi-directional format by applying compound to the apical or basal chamber (at 0.01 mM). Compounds in the apical or basal chambers were analysed by HPLC-MS. Results were expressed as Apparent Permeability, Papp, (nm/s), in comparison to other succinate prodrugs, including a number from WO2015/155231.
# [3] = Solubility of batches of different crystallinity; type: physicochemical
# Method: Two batches of Compound 1 were generated with different crystallinity. Batch 2 had higher crystallinity than Batch 3, which is regarded as having a higher degree of amorphous Compound 1-Batch 2 is therefore regarded as a more crystalline batch, whereas Batch 3 is regarded as a more amorphous batch. The methods used are discussed in this document.
# A sample of the more amorphous Compound 1 batch 3 was added to PBS or water to a final concentration of 258 mg/mL and sonicated for 10 minutes, then shaken for 30 minutes.
# A sample of the more crystalline Compound 1 batch 2 was added to HPLC-grade water (Fisher) to a final concentration of 30 mg/mL and sonicated for 10 minutes, then shaken for 30 minutes.
# A sample of the more crystalline Compound 1 batch 2 was added to HPLC-grade water (Fisher) to a final concentration of 52 mg/mL and sonicated for 20 minutes, then shaken for 1 hour.
# A sample of the more crystalline Compound 1 batch 2 was added to HPLC-grade water (Fisher) to a final concentration of […] and sonicated for 20 minutes, then shaken for 1.5 hours.
# [4] = Kinetic solubility (turbidity at 620 nm, dissolution rate constant); type: physicochemical; conditions: dissolution in PBS at 5° C., 460 mg/ml final concentration, 3 mins
# Method: Solid Compound 1 Batches s3, s12-17 (˜80 mg) were added to wells of a flat clear bottom 96 well plate. PBS at 5° C. was added to give a 460 mg/ml final concentration of 01-354 for all batches. After addition of the PBS, the plate was agitated for 10 s then immediately analysed for turbidity at 620 nm in real time for 3 mins by an Epoch Microplate Spectrophotometer (BioTek). A rate constant for the dissolution was calculated from the exponential decay fit of the recorded data.
# [5] = Aqueous formulations of Compound 1 (water, PBS, saline), concentration by HPLC; type: physicochemical; conditions: for Calculated concentration by HPLC: 50% w/v in 100 mM PBS pH 7.4; for Calculated Conc.: tap water, target conc. 400 mg/ml; for 400 mg Compound in 0.7 ml Water, Measured Conc.: 400 mg in 0.7 ml
# Method: Formulation Protocol • 1. Weigh out the required amount of Compound 1 then add the required amount of excipient (0.9% w/v saline, 100 mM PBS pH 7.4, water) to the solid Compound 1 to give the required mg/ml concentration of Compound 1. For example, for a 400 mg/ml formulation of Compound 1 in water, weigh out 400 mg of Compound 1 and add 0.7 ml of water. • 2. Sonicate the solution for 10 mins and then shake for 20 mins to ensure that Compound 1 is fully dissolved. • 3. The solution can be centrifuged (13000 rpm, 10 mins) to remove any particulates if required. • 4. The solution can be sterile filtered if required.
# ˜500 mg of compound was weighed into a vial, ˜500 μl 100 mM PBS pH 7.4 added and the vial was sonicated for 10 mins then shaken for 20 mins. A sample was then removed, diluted 1/2000 and the concentration calculated by HPLC analysis.
# Compound 1 batch 3 was heated in an oven to 60° C. for 20 mins, at which point it became a translucent pale-yellow liquid. 100 mM PBS pH 7.4 (20% v/v) was added and the solution was mixed for 20 mins on a shaker. […] The solution was placed at 4° C. for 72 hours.
# Method: • 1. Saline (0.9% w/v) was added to Compound 1 batch 11 in different amounts then sonicated for 10 mins—the samples remained slightly cloudy • 2. The samples were shaken for 30 mins at which point the solutions became translucent • 3. The solutions were diluted for HPLC analysis
# [6] = Stability in purified (HPLC grade) or non-purified (tap) water; type: physicochemical; conditions: 1 mg/ml, room temperature
# Method: A side-by-side experiment of the stability of Compound 1 in ‘purified’ HPLC grade water (Fisher Scientific) and ‘non-purified’ tap water was set up. In brief, 1 mg/mL solutions of Compound 1 were generated in ‘purified’ HPLC grade water (Fisher Scientific) and ‘non-purified’ tap water. These were incubated at room temperature for up to 10 days. Concentration and purity of Compound 1 was assessed over time by HPLC in comparison to a standard (AUC of 8.21 RT peak at 230 nm for calculated concentration and AUC of Compound 1 peak vs impurities for purity analysis). Data presented is the average of two samples.
smiles,measurement,setting,value
"CC(OC(=O)CCC(=O)O)OC(=O)CCC(=O)O [A, reference compound]",solubility,[1],52 µM
CCN(CC)C(=O)[C@H](CSC(=O)CCC(=O)OC(C)C)NC(C)=O [A],"Papp A→B at 1 h, 0.01 mM",[2],0.313 ×10⁻⁶ cm/s
CCN(CC)C(=O)[C@H](CSC(=O)CCC(=O)OC)NC(C)=O [B],"Papp A→B at 1 h, 0.01 mM",[2],0.192 ×10⁻⁶ cm/s
"COC(=O)CCC(=O)SCCNC(C)=O [Batch 2, Methyl 3-[(2-acetylaminoethylthio)carbonyl]propionate]",concentration reached,"[3]; HPLC-grade water, added to 30 mg/mL, sonicated 10 minutes, shaken 30 minutes",17000 µg/mL
same,concentration reached,"[3]; HPLC-grade water, added to 52 mg/mL, sonicated 20 minutes, shaken 1 hour",52000 µg/mL
same,concentration reached,"[3]; HPLC-grade water, added to 2000 mg/mL, sonicated 20 minutes, shaken 1.5 hours",850000 µg/mL
same,solubility at 1.5 h,"[3]; HPLC-grade water, water, thermodynamic from solid, more crystalline Compound 1, read-out: water solubility",≥ 850 mg/mL
"COC(=O)CCC(=O)SCCNC(C)=O [Batch 3, Methyl 3-[(2-acetylaminoethylthio)carbonyl]propionate]","Rate constants, k",[4],0.014 s⁻¹
same,Calculated concentration by HPLC,[5],535 mg/mL
same,appearance of liquid formulation,"[5]; batch 3 melted at 60° C., 100 mM PBS pH 7.4 (20% v/v) added, 72 hours at 4° C.",remained a translucent liquid
same,Calculated Conc.,[5],381 mg/mL
same,"400 mg Compound in 0.7 ml Water, Measured Conc.",[5],381 mg/mL
same,solubility at 30 min,"[3]; PBS or water, water, thermodynamic from solid, PBS or water, added to 258 mg/mL, sonicated 10 minutes, shaken 30 minutes, read-out: concentration reached",≥ 258 mg/mL
same,Calculated Conc.,"[6]; HPLC grade water, day 0",1.02 mg/mL
same,Purity,"[6]; HPLC grade water, day 0",99.0%
same,Calculated Conc.,"[6]; HPLC grade water, day 3",1.04 mg/mL
same,Purity,"[6]; HPLC grade water, day 3",98.8%
same,Calculated Conc.,"[6]; HPLC grade water, day 5",1.03 mg/mL
same,Purity,"[6]; HPLC grade water, day 5",99.0%
same,Calculated Conc.,"[6]; HPLC grade water, day 6",1.01 mg/mL
same,Purity,"[6]; HPLC grade water, day 6",99.0%
same,Calculated Conc.,"[6]; tap water, day 0",1.06 mg/mL
same,Purity,"[6]; tap water, day 0",98.5%
same,Calculated Conc.,"[6]; tap water, day 3",0.98 mg/mL
same,Purity,"[6]; tap water, day 3",95.7%
same,Calculated Conc.,"[6]; tap water, day 5",0.93 mg/mL
same,Purity,"[6]; tap water, day 5",94.4%
same,Calculated Conc.,"[6]; tap water, day 6",0.89 mg/mL
same,Purity,"[6]; tap water, day 6",93.3%
same,Calculated Conc.,"[6]; tap water, day 10",0.83 mg/mL
same,Purity,"[6]; tap water, day 10",93.0%
"COC(=O)CCC(=O)SCCNC(C)=O [Batch 4, Methyl 3-[(2-acetylaminoethylthio)carbonyl]propionate]",Calculated concentration by HPLC,[5],526 mg/mL
"COC(=O)CCC(=O)SCCNC(C)=O [Batch 5, Methyl 3-[(2-acetylaminoethylthio)carbonyl]propionate]",Calculated concentration by HPLC,[5],531 mg/mL
"COC(=O)CCC(=O)SCCNC(C)=O [Batch 6, Methyl 3-[(2-acetylaminoethylthio)carbonyl]propionate]",Calculated concentration by HPLC,[5],543 mg/mL
"COC(=O)CCC(=O)SCCNC(C)=O [Batch 12, Methyl 3-[(2-acetylaminoethylthio)carbonyl]propionate]","Rate constants, k",[4],0.022 s⁻¹
same,Calculated Conc.,[5],378 mg/mL
same,"400 mg Compound in 0.7 ml Water, Measured Conc.",[5],378 mg/mL
"COC(=O)CCC(=O)SCCNC(C)=O [Batch 13, Methyl 3-[(2-acetylaminoethylthio)carbonyl]propionate]","Rate constants, k",[4],0.013 s⁻¹
same,Calculated Conc.,[5],395 mg/mL
same,"400 mg Compound in 0.7 ml Water, Measured Conc.",[5],395 mg/mL
"COC(=O)CCC(=O)SCCNC(C)=O [Batch 14, Methyl 3-[(2-acetylaminoethylthio)carbonyl]propionate]","Rate constants, k",[4],0.011 s⁻¹
same,Calculated Conc.,[5],366 mg/mL
same,"400 mg Compound in 0.7 ml Water, Measured Conc.",[5],366 mg/mL
"COC(=O)CCC(=O)SCCNC(C)=O [Batch 15, Methyl 3-[(2-acetylaminoethylthio)carbonyl]propionate]","Rate constants, k",[4],0.074 s⁻¹
same,"400 mg Compound in 0.7 ml Water, Measured Conc.",[5],414 mg/mL
"COC(=O)CCC(=O)SCCNC(C)=O [Batch 16, Methyl 3-[(2-acetylaminoethylthio)carbonyl]propionate]","Rate constants, k",[4],0.055 s⁻¹
same,"400 mg Compound in 0.7 ml Water, Measured Conc.",[5],435 mg/mL
"COC(=O)CCC(=O)SCCNC(C)=O [Batch 17, Methyl 3-[(2-acetylaminoethylthio)carbonyl]propionate]","Rate constants, k",[4],0.111 s⁻¹
CCOC(=O)CCC(=O)SCCNC(C)=O [C],"Papp A→B at 1 h, 0.01 mM",[2],0.128 ×10⁻⁶ cm/s
CC(=O)NCC(C)SC(=O)CCC(=O)OC(C)C (stereo not shown) [D],"Papp A→B at 1 h, 0.01 mM",[2],0.142 ×10⁻⁶ cm/s
CC(=O)NCCSC(=O)CCC(=O)OCC(C)(C)C [E],"Papp A→B at 1 h, 0.01 mM",[2],< 0.021 ×10⁻⁶ cm/s
COC(=O)CCC(=O)SC(C)CNC(C)=O (stereo not shown) [F],"Papp A→B at 1 h, 0.01 mM",[2],0.145 ×10⁻⁶ cm/s
CCOC(=O)CCC(=O)SC(C)CNC(C)=O (stereo not shown) [G],"Papp A→B at 1 h, 0.01 mM",[2],0.087 ×10⁻⁶ cm/s
O=C1CNC(=O)[C@H](CSC(=O)CCC(=O)SC[C@@H]2NC(=O)CNC2=O)N1 [HI],"Papp A→B at 1 h, 0.01 mM",[2],0.262 ×10⁻⁶ cm/s
CC(=O)NCCSC(=O)CCC(=O)OC(C)C [J],"Papp A→B at 1 h, 0.01 mM",[2],0.135 ×10⁻⁶ cm/s
CCOC(=O)CCC(=O)SC[C@H](NC(C)=O)C(=O)N(CC)CC [K],"Papp A→B at 1 h, 0.01 mM",[2],0.168 ×10⁻⁶ cm/s
CC(=O)NCC(C)SC(=O)CCC(=O)OCC(C)(C)C (stereo not shown) [L],"Papp A→B at 1 h, 0.01 mM",[2],0.016 ×10⁻⁶ cm/s
CCNC(=O)[C@H](CSC(=O)CCC(=O)SC[C@H](NC(=O)CC)C(=O)N(CC)CC)NC(=O)CC [M],"Papp A→B at 1 h, 0.01 mM",[2],0.097 ×10⁻⁶ cm/s
